Measured values: US12077503B2, “Substituted cyclic amides and their use as herbicides” (FMC CORPORATION, priority 2015, dated 2024)

Columns and labels:
Type in all cases: in vivo
[1] = system: Kochia (Kochia scoparia); experiment: Test A preemergence; conditions: Bassia scoparia, pre-emergence, 240 h, preemergence, 0 to 100 scale where 0 is no effect and 100 is complete control, read-out: Kochia plant response rating; for pest or weed control at 125 g/ha: 125 g ai/ha, visual injury rating, approximately 10 d; for pest or weed control at 500 g/ha: 500 g ai/ha
Method in brief: (§1)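 Greenhouse, ~10 d after spray; visual injury vs untreated controls, 0 = no effect, 100 = complete control. Preemergence: directed soil spray over planted seeds. Postemergence: plants 2–10 cm, 1–2 leaf stage. Loam/sand blend. Compound in non-phytotoxic solvent with surfactant.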

[2] = system: barnyardgrass (Echinochloa crus-galli); experiment: Test A preemergence; conditions: Echinochloa crus-galli, pre-emergence, 240 h, preemergence, 0 to 100 scale where 0 is no effect and 100 is complete control, read-out: Barnyardgrass plant response rating; for pest or weed control at 125 g/ha: 125 g ai/ha, visual injury rating, approximately 10 d; for pest or weed control at 500 g/ha: 500 g ai/ha
Method in brief: as §1

[3] = system: giant foxtail (Setaria faberii); experiment: Test A preemergence; conditions: Setaria faberi, pre-emergence, 240 h, preemergence, 0 to 100 scale where 0 is no effect and 100 is complete control, read-out: Foxtail, Giant plant response rating; for pest or weed control at 125 g/ha: 125 g ai/ha, visual injury rating, approximately 10 d; for pest or weed control at 500 g/ha: 500 g ai/ha
Method in brief: as §1

[4] = system: pigweed (Amaranthus retroflexus); experiment: Test A preemergence; conditions: Amaranthus retroflexus, pre-emergence, 240 h, preemergence, 0 to 100 scale where 0 is no effect and 100 is complete control, read-out: Pigweed plant response rating; for pest or weed control at 125 g/ha: 125 g ai/ha, visual injury rating, approximately 10 d; for pest or weed control at 500 g/ha: 500 g ai/ha
[5] = system: ragweed (common ragweed, Ambrosia elatior); experiment: Test A preemergence; conditions: Ambrosia artemisiifolia, pre-emergence, 240 h, preemergence, 0 to 100 scale where 0 is no effect and 100 is complete control, read-out: Ragweed plant response rating; for pest or weed control at 125 g/ha: 125 g ai/ha, visual injury rating, approximately 10 d; for pest or weed control at 500 g/ha: 500 g ai/ha
Method in brief: as §1

[6] = system: ryegrass, Italian (Italian ryegrass, Lolium multiflorum); experiment: Test A preemergence; conditions: Lolium multiflorum, pre-emergence, 240 h, preemergence, 0 to 100 scale where 0 is no effect and 100 is complete control, read-out: Ryegrass, Italian plant response rating; for pest or weed control at 125 g/ha: 125 g ai/ha, visual injury rating, approximately 10 d; for pest or weed control at 500 g/ha: 500 g ai/ha
Method in brief: as §1

[7] = system: Galium (catchweed bedstraw, Galium aparine); experiment: Test A postemergence; conditions: Galium, post-emergence, 240 h, postemergence; for pest or weed control at 125 g/ha: 125 g ai/ha, visual injury vs untreated controls after approx. 10 d, 0 = no effect, 100 = complete control, read-out: Galium plant response rating (0 to 100 scale); for pest or weed control at 500 g/ha: 500 g ai/ha, 0 to 100 scale, 0 is no effect, 100 is complete control, read-out: Galium plant response rating
Method in brief: as §1

[8] = system: Kochia (Kochia scoparia); experiment: Test A postemergence; conditions: Bassia scoparia, post-emergence, 240 h, postemergence; for pest or weed control at 125 g/ha: 125 g ai/ha, visual injury vs untreated controls after approx. 10 d, 0 = no effect, 100 = complete control, read-out: Kochia plant response rating (0 to 100 scale); for pest or weed control at 500 g/ha: 500 g ai/ha, 0 to 100 scale, 0 is no effect, 100 is complete control, read-out: Kochia plant response rating
Method in brief: as §1

[9] = system: blackgrass (Alopecurus myosuroides); experiment: Test A postemergence; conditions: Alopecurus myosuroides, post-emergence, 240 h, postemergence; for pest or weed control at 125 g/ha: 125 g ai/ha, visual injury vs untreated controls after approx. 10 d, 0 = no effect, 100 = complete control, read-out: Blackgrass plant response rating (0 to 100 scale); for pest or weed control at 500 g/ha: 500 g ai/ha, 0 to 100 scale, 0 is no effect, 100 is complete control, read-out: Blackgrass plant response rating
Method in brief: as §1

[10] = system: corn (Zea mays); experiment: Test A postemergence; conditions: Zea mays, post-emergence, 240 h, postemergence; for plant injury at 125 g/ha: 125 g ai/ha, visual injury vs untreated controls after approx. 10 d, 0 = no effect, 100 = complete control, read-out: Corn plant response rating (0 to 100 scale); for plant injury at 500 g/ha: 500 g ai/ha, 0 to 100 scale, 0 is no effect, 100 is complete control, read-out: Corn plant response rating
Method in brief: as §1

[11] = system: giant foxtail (Setaria faberii); experiment: Test A postemergence; conditions: Setaria faberi, post-emergence, 240 h, postemergence; for pest or weed control at 125 g/ha: 125 g ai/ha, visual injury vs untreated controls after approx. 10 d, 0 = no effect, 100 = complete control, read-out: Foxtail, Giant plant response rating (0 to 100 scale); for pest or weed control at 500 g/ha: 500 g ai/ha, 0 to 100 scale, 0 is no effect, 100 is complete control, read-out: Foxtail, Giant plant response rating
Method in brief: as §1

[12] = system: pigweed (Amaranthus retroflexus); experiment: Test A postemergence; conditions: Amaranthus retroflexus, post-emergence, 240 h, postemergence; for pest or weed control at 125 g/ha: 125 g ai/ha, visual injury vs untreated controls after approx. 10 d, 0 = no effect, 100 = complete control, read-out: Pigweed plant response rating (0 to 100 scale); for pest or weed control at 500 g/ha: 500 g ai/ha, 0 to 100 scale, 0 is no effect, 100 is complete control, read-out: Pigweed plant response rating
Method in brief: as §1

[13] = system: ragweed (common ragweed, Ambrosia elatior); experiment: Test A postemergence; conditions: Ambrosia artemisiifolia, post-emergence, 240 h, postemergence; for pest or weed control at 125 g/ha: 125 g ai/ha, visual injury vs untreated controls after approx. 10 d, 0 = no effect, 100 = complete control, read-out: Ragweed plant response rating (0 to 100 scale); for pest or weed control at 500 g/ha: 500 g ai/ha, 0 to 100 scale, 0 is no effect, 100 is complete control, read-out: Ragweed plant response rating
Method in brief: as §1

[14] = system: ryegrass, Italian (Italian ryegrass, Lolium multiflorum); experiment: Test A postemergence; conditions: Lolium multiflorum, post-emergence, 240 h, postemergence; for pest or weed control at 125 g/ha: 125 g ai/ha, visual injury vs untreated controls after approx. 10 d, 0 = no effect, 100 = complete control, read-out: Ryegrass, Italian plant response rating (0 to 100 scale); for pest or weed control at 500 g/ha: 500 g ai/ha, 0 to 100 scale, 0 is no effect, 100 is complete control, read-out: Ryegrass, Italian plant response rating
Method in brief: as §1

[15] = system: wheat (Triticum aestivum); experiment: Test A postemergence; conditions: Triticum aestivum, post-emergence, 240 h, postemergence; for plant injury at 125 g/ha: 125 g ai/ha, visual injury vs untreated controls after approx. 10 d, 0 = no effect, 100 = complete control, read-out: Wheat plant response rating (0 to 100 scale); for plant injury at 500 g/ha: 500 g ai/ha, 0 to 100 scale, 0 is no effect, 100 is complete control, read-out: Wheat plant response rating
Method in brief: as §1

Structure (SMILES) | pest or weed control at 125 g/ha [1] | pest or weed control at 500 g/ha [1] | pest or weed control at 125 g/ha [2] | pest or weed control at 500 g/ha [2] | pest or weed control at 125 g/ha [3] | pest or weed control at 500 g/ha [3] | pest or weed control at 125 g/ha [4] | pest or weed control at 500 g/ha [4] | pest or weed control at 125 g/ha [5] | pest or weed control at 500 g/ha [5] | pest or weed control at 125 g/ha [6] | pest or weed control at 500 g/ha [6] | pest or weed control at 125 g/ha [7] | pest or weed control at 500 g/ha [7] | pest or weed control at 125 g/ha [8] | pest or weed control at 500 g/ha [8] | pest or weed control at 125 g/ha [9] | pest or weed control at 500 g/ha [9] | plant injury at 125 g/ha [10] | plant injury at 500 g/ha [10] | further results
COc1cc(C(F)(F)F)ccc1[C@H]1CNC(=O)[C@@H]1C(=O)Nc1ccccc1F [Compound 1202] | 20% | 60% | 90% | 90% | 50% | 90% | 0% | 0% | 0% | 90% | 0% | 60% | 0% | 40% | 30% | 40% | 0% | 40% | 20% | 30% | pest or weed control at 125 g/ha [11]: 70%; pest or weed control at 500 g/ha [11]: 90%; pest or weed control at 125 g/ha [12]: 0%; pest or weed control at 500 g/ha [12]: 20%; pest or weed control at 125 g/ha [13]: 0%; pest or weed control at 500 g/ha [13]: 20%; pest or weed control at 125 g/ha [14]: 0%; pest or weed control at 500 g/ha [14]: 0%; plant injury at 125 g/ha [15]: 0%; plant injury at 500 g/ha [15]: 50%
Cc1c(F)cccc1NC(=O)[C@H]1C(=O)N(C)C[C@@H]1c1ccc(C(F)(F)F)nc1 [Compound 1197] | 100% | 100% | 100% | 100% | 100% | 100% | 80% | 80% | 100% | 100% | 70% | 70% | 60% | 60% | 70% | 80% | 50% | 50% | 80% | 90% | pest or weed control at 125 g/ha [11]: 90%; pest or weed control at 500 g/ha [11]: 90%; pest or weed control at 125 g/ha [12]: 50%; pest or weed control at 500 g/ha [12]: 70%; pest or weed control at 125 g/ha [13]: 50%; pest or weed control at 500 g/ha [13]: 60%; pest or weed control at 125 g/ha [14]: 30%; pest or weed control at 500 g/ha [14]: 60%; plant injury at 125 g/ha [15]: 50%; plant injury at 500 g/ha [15]: 60%
COc1ccc([C@H]2CN(C)C(=O)[C@@H]2C(=O)Nc2cccc(F)c2F)c(OC)c1 [Compound 1209] | 60% | 90% | 90% | 90% | 90% | 100% | 0% | 0% | 60% | 90% | 0% | 50% | 0% | 30% | 0% | 50% | 0% | 30% | 0% | 0% | pest or weed control at 125 g/ha [11]: 80%; pest or weed control at 500 g/ha [11]: 90%; pest or weed control at 125 g/ha [12]: 0%; pest or weed control at 500 g/ha [12]: 0%; pest or weed control at 125 g/ha [13]: 0%; pest or weed control at 500 g/ha [13]: 0%; pest or weed control at 125 g/ha [14]: 0%; pest or weed control at 500 g/ha [14]: 20%; plant injury at 125 g/ha [15]: 0%; plant injury at 500 g/ha [15]: 20%
